Experimental data reported in ChEMBL document CHEMBL1201862, “PubChem BioAssay data set” (2004).
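Briefly, cells in 96-well plates were exposed to five compound concentrations for 48 h, and endpoints were estimated by linear interpolation. At the GI50, growth is halved.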 Calls of active or inactive are those of the source. No stated cut-off is given here; in the data, active = GI50 up to about 1.1 µM and inactive = higher.

What was measured:
Assay in all cases: inhibition of tumour cell growth, NCI panel, 48 h
[1] = system: A549
[2] = system: K562
[3] = system: PC-3
[4] = system: MDA-MB-435
[5] = system: A498
[6] = system: OVCAR-8
[7] = system: HL-60
[8] = system: HCT-116
[9] = system: OVCAR-4
[10] = system: NCI-H460
[11] = system: NCI/ADR-RES
[12] = system: NCI-H23
[13] = system: Malme-3M
[14] = system: U-251
[15] = system: TK-10
[16] = system: SR
[17] = system: SNB-19
[18] = system: SF-539
[19] = system: KM12
[20] = system: CAKI-1

Measured: GI50

O=S(=O)(c1ccccc1)C1(CCC2OCCO2)C=CC2(CC1)OCCO2 (stereo not given)
inactive: [1] > 100 µM | [2] > 100 µM | [3] > 10 µM | [4] > 100 µM | [5] > 100 µM | [6] > 100 µM | [7] > 100 µM | [8] > 100 µM | [9] > 100 µM | [10] > 100 µM | [11] > 100 µM | [12] > 100 µM | [13] > 100 µM | [14] > 100 µM | [15] > 100 µM | [16] > 100 µM | [17] > 100 µM

CC1(C)N=C(/C=N/O)C(C)(C)N1O
inactive: [1] > 100 µM | [2] > 100 µM | [3] > 100 µM | [4] > 100 µM | [5] > 100 µM | [18] > 100 µM | [19] > 100 µM | [6] > 100 µM | [7] > 100 µM | [8] > 100 µM | [9] > 100 µM | [10] > 100 µM | [11] > 100 µM | [12] > 100 µM | [13] > 100 µM | [14] > 100 µM | [15] > 100 µM | [16] > 100 µM | [17] 87.3 µM

CC1(C)CC(=O)c2c(nc3ccc4ccccc4c3c2-c2ccc(NC(=O)CCCCCCCCC(=O)Nc3ccc(-c4c5c(nc6ccc7ccccc7c46)CC(C)(C)CC5=O)cc3)cc2)C1
inactive: [1] > 100 µM | [2] > 100 µM | [3] > 100 µM | [20] > 100 µM | [4] > 100 µM | [5] > 100 µM | [18] > 100 µM | [19] > 100 µM | [6] > 100 µM | [7] > 100 µM | [8] > 100 µM | [10] > 100 µM | [11] > 100 µM | [12] > 100 µM | [14] > 100 µM | [15] > 100 µM | [16] > 100 µM | [17] > 100 µM

N#CCCC1(CCC#N)CCCCCCC(CCC#N)(CCC#N)C(=O)C1=O
inactive: [1] > 100 µM | [2] > 100 µM | [3] > 100 µM | [20] > 100 µM | [4] > 100 µM | [5] 50 µM | [18] > 100 µM | [19] > 100 µM | [6] > 100 µM | [8] > 100 µM | [9] > 100 µM | [10] > 100 µM | [11] > 100 µM | [12] > 100 µM | [13] > 100 µM | [14] > 100 µM | [15] > 100 µM | [16] > 100 µM | [17] > 100 µM

N=C(N)NC(CC(=O)O)c1ccccc1 (stereo not given)
inactive: [1] > 100 µM | [2] > 100 µM | [3] > 100 µM | [20] > 100 µM | [4] > 100 µM | [5] > 100 µM | [18] > 100 µM | [19] > 100 µM | [6] > 100 µM | [8] > 100 µM | [9] > 100 µM | [10] > 100 µM | [11] > 100 µM | [12] > 100 µM | [13] > 100 µM | [14] > 100 µM | [15] > 100 µM | [16] > 100 µM | [17] > 100 µM

Cc1cn(CC(=S)NCCc2c[nH]c3ccccc23)c(=O)[nH]c1=O
inactive: [1] 74.1 µM | [2] 39.1 µM | [3] 77.1 µM | [4] 74.5 µM | [5] 60.1 µM | [18] > 100 µM | [19] > 100 µM | [7] 56.8 µM | [8] 76.7 µM | [9] 48.8 µM | [11] 99.1 µM | [12] 59.3 µM | [13] 69.5 µM | [14] > 100 µM | [16] 28.1 µM | [17] > 100 µM

COC(=O)[C@]1(C)CCC[C@@]2(C)C1CC[C@]13C=C(C(C)C)[C@H](CC21)CC3(Cl)C#N (stereo not given in full)
inactive: [1] 57.5 µM | [2] 19.5 µM | [3] 18.9 µM | [20] 66.1 µM | [4] 42.6 µM | [5] > 100 µM | [18] 78 µM | [19] 38.1 µM | [6] 45.9 µM | [8] 14.9 µM | [9] 54.6 µM | [10] 41.7 µM | [11] 57.7 µM | [12] 59.8 µM | [13] 36.6 µM | [14] 19.8 µM | [15] > 100 µM | [16] 32.1 µM | [17] > 100 µM

CC(C)(C)C1CCC2c3c([nH]c4ccccc34)C3C(=O)N(c4ccc(C(=O)O)cc4)C(=O)C3C2C1 (stereo not given)
inactive: [1] 12.2 µM | [2] 4.43 µM | [3] 13.4 µM | [20] 16.7 µM | [4] 2.96 µM | [5] 18.2 µM | [18] 17.2 µM | [6] 12 µM | [7] 4.52 µM | [8] 14.4 µM | [10] 16.3 µM | [11] 16.7 µM | [12] 17.7 µM | [13] 14.9 µM | [14] 13.4 µM | [15] 17.5 µM | [16] 25 µM | [17] 16.8 µM
